The record followed here is US20250114460A1, “NOVEL PLK1 DEGRADATION INDUCING COMPOUND” (UPPTHERA, INC., priority 2021, published 2025).

Common to all, as to type: cell-based
For one test, the system named is MRC-5 cell line. Briefly: Cell viability assay for MRC-5 cell line (EZ-Cytox). The following applies: Homo sapiens, MRC5, 120 h; MRC-5 normal cell line, 5 days, 10000 nM to 1.52 nM; N.D. = no cytotoxicity until 10 μM; read-out: Activity: IC50 value of Exemplary Compound to MRC-5 cell line. Here is the method:
4. Cell Viability Assay for MRC-5 Cell Line
(1) Culture of MRC-5 Cell Line
Passage of cultured cells was maintained within P15.
(2) Treatment of Compounds of the Present Invention
Then, it was cultured in 37° C.
(3) Cytotoxicity Experiment
CO2 incubator for 4 hours.

In a further test the target is T1, PLK1 (Homo sapiens, UniProt P53350).
T1 construct: endogenous in cells; host or cells: HeLa LgBit (Plk1-HiBit KI): HeLa stably expressing LgBit, with a CRISPR/Cas9 knock-in of HiBit at the endogenous PLK1 locus
Briefly: Luciferase assay for PLK1 in HeLa LgBit (Plk1-HiBit KI) cell line. As to conditions: 300 nM compound, luminescence after 9 hours. The method, boiled down: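 HeLa cells stably expressing LgBit, with HiBit knocked in at the C-terminus of endogenous Plk1, released from a 24 h 2 mM thymidine block and grown 18 h. Endurazine added, then compound at 300 nM; luminescence tracked in real time, expressed as ratio to DMSO.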
For orientation: The HiBiT peptide binds its large partner to form an active luciferase.

In the next test the test system is NCI-H526 cell line. Briefly: Cell viability assay for H526 cell (EZ-Cytox). As to conditions: Homo sapiens, NCI-H526, 120 h; H526 cells, 5 days, 3000 nM to 0.46 nM. In outline: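 NCI-H526 cells were exposed to compound in CO2 incubator culture for 5 days. Viability was read by EZ-Cytox absorbance at 450 nm after 3 min shaking, giving IC50 values.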

Where only a bound is given, the exact number is not on record here.

T1 sequence (P53350 whole entry): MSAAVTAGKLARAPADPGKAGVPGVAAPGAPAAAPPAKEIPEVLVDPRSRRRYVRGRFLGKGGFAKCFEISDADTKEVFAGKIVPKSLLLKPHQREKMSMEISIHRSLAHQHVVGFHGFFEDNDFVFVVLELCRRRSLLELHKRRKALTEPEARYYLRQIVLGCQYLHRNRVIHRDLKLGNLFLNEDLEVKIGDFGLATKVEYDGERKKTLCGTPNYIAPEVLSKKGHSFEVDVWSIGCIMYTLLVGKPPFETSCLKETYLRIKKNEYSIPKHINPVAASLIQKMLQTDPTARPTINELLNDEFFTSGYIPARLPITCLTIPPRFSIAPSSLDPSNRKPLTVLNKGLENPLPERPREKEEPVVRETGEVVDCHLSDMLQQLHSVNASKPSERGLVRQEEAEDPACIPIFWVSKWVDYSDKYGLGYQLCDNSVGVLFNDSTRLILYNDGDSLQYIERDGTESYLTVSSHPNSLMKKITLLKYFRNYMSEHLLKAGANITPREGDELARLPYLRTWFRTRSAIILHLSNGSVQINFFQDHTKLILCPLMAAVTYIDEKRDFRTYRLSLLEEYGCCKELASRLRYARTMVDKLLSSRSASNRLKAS

In general, IC50 refers to the concentration that gives 50% inhibition. With `COc1cc(C(=O)NC2CCN(C[C@H]3CCN(c4ccc5c(c4)C(=O)N(C4CCC(=O)NC4=O)C5=O)C3)CC2)ccc1Nc1ncc2c(n1)N(C1CCCC1)CC(F)(F)C(=O)N2C` (stereo partly drawn) [Compound 49, 4-((9-cyclopentyl-7,7-difluoro-5-methyl-6-oxo-6,7,8,9-tetrahydro-5H-pyrimido[4,5-b][1,4]diazepin-2-yl)amino)-N-(1-(((3R)-1-(2-(2,6-dioxopiperidin-3-yl)-1,3-dioxoisoindolin-5-yl)pyrrolidin-3-yl)methyl)piperidin-4-yl)-3-methoxybenzamide], the IC50 was greater than 10 µM in the test on MRC-5 cell line and less than 0.05 µM with NCI-H526 cell line. Besides, the “Activity: ratio of the luminescense value of each Exemplary Compound treatment group to DMSO treatment group” value (“Activity: ratio” for short) on PLK1 is reported as “++ (++<0.6)”.

For the molecule `COc1cc(C(=O)NCC2CCN(CCC3CCN(c4cccc5c4C(=O)N(C4CCC(=O)NC4=O)C5=O)C3)CC2)ccc1Nc1ncc2c(n1)N(C1CCCC1)CC(F)(F)C(=O)N2C` (stereo not drawn) [Compound 50, 4-((9-cyclopentyl-7,7-difluoro-5-methyl-6-oxo-6,7,8,9-tetrahydro-5H-pyrimido[4,5-b][1,4]diazepin-2-yl)amino)-N-((1-(2-(1-(2-(2,6-dioxopiperidin-3-yl)-1,3-dioxoisoindolin-4-yl)pyrrolidin-3-yl)ethyl)piperidin-4-yl)methyl)-3-methoxybenzamide], the 50% inhibitory concentration (IC50) is 11.3 µM in the test with MRC-5 cell line and less than 0.03 µM in the test with NCI-H526 cell line. On PLK1, the “Activity: ratio” value was “++ (++<0.6)”.

Turning to `COc1cc(C(=O)NN2CCN(C3CCN(c4cccc5c4C(=O)N(C4CCC(=O)NC4=O)C5=O)C3)CC2)ccc1Nc1ncc2c(n1)N(C1CCCC1)CC(F)(F)C(=O)N2C` (stereo not drawn) [Compound 51, 4-((9-cyclopentyl-7,7-difluoro-5-methyl-6-oxo-6,7,8,9-tetrahydro-5H-pyrimido[4,5-b][1,4]diazepin-2-yl)amino)-N-(4-(1-(2-(2,6-dioxopiperidin-3-yl)-1,3-dioxoisoindolin-4-yl)pyrrolidin-3-yl)piperazin-1-yl)-3-methoxybenzamide], the IC50 is greater than 10 µM with MRC-5 cell line and less than 0.03 µM with NCI-H526 cell line. In addition, the “Activity: ratio” value at PLK1 is recorded as “++ (++<0.6)”.

In the case of `COc1cc(C(=O)NC2CCN(CCC3CCCN(c4cccc5c4C(=O)N(C4CCC(=O)NC4=O)C5=O)C3)CC2)ccc1Nc1ncc2c(n1)N(C1CCCC1)CC(F)(F)C(=O)N2C` (stereo not drawn) [Compound 55, 4-((9-cyclopentyl-7,7-difluoro-5-methyl-6-oxo-6,7,8,9-tetrahydro-5H-pyrimido[4,5-b][1,4]diazepin-2-yl)amino)-N-(1-(2-(1-(2-(2,6-dioxopiperidin-3-yl)-1,3-dioxoisoindolin-4-yl)piperidin-3-yl)ethyl)piperidin-4-yl)-3-methoxybenzamide], the IC50 in the test on MRC-5 cell line is 3.81 µM; in the test with NCI-H526 cell line it was less than 0.1 µM. Also, the “Activity: ratio” value at PLK1 is listed as “++ (++<0.6)”.

For the molecule `COc1cc(C(=O)NN2CCN(C3CCN(c4ccc5c(c4)C(=O)N(C4CCC(=O)NC4=O)C5=O)C3)CC2)ccc1Nc1ncc2c(n1)N(C1CCCC1)CC(F)(F)C(=O)N2C` (stereo not drawn) [Compound 56, 4-((9-cyclopentyl-7,7-difluoro-5-methyl-6-oxo-6,7,8,9-tetrahydro-5H-pyrimido[4,5-b][1,4]diazepin-2-yl)amino)-N-(4-(1-(2-(2,6-dioxopiperidin-3-yl)-1,3-dioxoisoindolin-5-yl)pyrrolidin-3-yl)piperazin-1-yl)-3-methoxybenzamide], the half-maximal inhibitory concentration (IC50) in the test with MRC-5 cell line was greater than 10 µM; with NCI-H526 cell line it was less than 0.03 µM. Moreover, the “Activity: ratio” value at PLK1 is “++ (++<0.6)”.

On to `COc1cc(C(=O)NN2CCN(C(=O)CCC3CCN(c4cccc5c4CN(C4CCC(=O)NC4=O)C5=O)CC3)CC2)ccc1Nc1ncc2c(n1)N(C(C)C)CC(F)(F)C(=O)N2C` (stereo not drawn) [Compound 58, 4-((7,7-difluoro-9-isopropyl-5-methyl-6-oxo-6,7,8,9-tetrahydro-5H-pyrimido[4,5-b][1,4]diazepin-2-yl)amino)-N-(4-(3-(1-(2-(2,6-dioxopiperidin-3-yl)-1-oxoisoindolin-4-yl)piperidin-4-yl)propanoyl)piperazin-1-yl)-3-methoxybenzamide], for which the results for the half-inhibitory concentration (IC50) in the test with MRC-5 cell line and in the test on NCI-H526 cell line were greater than 10 µM and less than 0.05 µM, respectively. At PLK1, the “Activity: ratio” value is reported as “++ (++<0.6)”.

With `COc1cc(C(=O)NN2CCN(C(=O)CCC3CCN(c4ccc5c(c4)CN(C4CCC(=O)NC4=O)C5=O)CC3)CC2)ccc1Nc1ncc2c(n1)N(C(C)C)CC(F)(F)C(=O)N2C` (stereo not drawn) [Compound 59, 4-((7,7-difluoro-9-isopropyl-5-methyl-6-oxo-6,7,8,9-tetrahydro-5H-pyrimido[4,5-b][1,4]diazepin-2-yl)amino)-N-(4-(3-(1-(2-(2,6-dioxopiperidin-3-yl)-1-oxoisoindolin-5-yl)piperidin-4-yl)propanoyl)piperazin-1-yl)-3-methoxybenzamide], the values for the IC50 in the test with MRC-5 cell line and in the test on NCI-H526 cell line were greater than 10 µM and less than 0.03 µM, respectively. Moreover, the “Activity: ratio” value at PLK1 is recorded as “++ (++<0.6)”.

Turning to `COc1cc(C(=O)NC2CCN(CCCN3CCN(c4cccc5c4C(=O)N(C4CCC(=O)NC4=O)C5=O)CC3)CC2)ccc1Nc1ncc2c(n1)N(C1CCCC1)CC(F)(F)C(=O)N2C` (stereo not drawn) [Compound 60, 4-((9-cyclopentyl-7,7-difluoro-5-methyl-6-oxo-6,7,8,9-tetrahydro-5H-pyrimido[4,5-b][1,4]diazepin-2-yl)amino)-N-(1-(3-(4-(2-(2,6-dioxopiperidin-3-yl)-1,3-dioxoisoindolin-4-yl)piperazin-1-yl)propyl)piperidin-4-yl)-3-methoxybenzamide], the half-inhibitory concentration (IC50) was 4.19 µM with MRC-5 cell line and less than 0.03 µM with NCI-H526 cell line. In addition, the “Activity: ratio” value on PLK1 is listed as “++ (++<0.6)”.

For the molecule `COc1cc(C(=O)NC2CCN(C(=O)CCC3CCN(c4cccc5c4C(=O)N(C4CCC(=O)NC4=O)C5=O)CC3)CC2)ccc1Nc1ncc2c(n1)N(C1CCCC1)CC(F)(F)C(=O)N2C` (stereo not drawn) [Compound 62, 4-((9-cyclopentyl-7,7-difluoro-5-methyl-6-oxo-6,7,8,9-tetrahydro-5H-pyrimido[4,5-b][1,4]diazepin-2-yl)amino)-N-(1-(3-(1-(2-(2,6-dioxopiperidin-3-yl)-1,3-dioxoisoindolin-4-yl)piperidin-4-yl)propanoyl)piperidin-4-yl)-3-methoxybenzamide], the IC50 in the test on MRC-5 cell line was greater than 10 µM; with NCI-H526 cell line, less than 0.1 µM. Moreover, on PLK1, the “Activity: ratio” value is recorded as “+++ (+++: <0.3)”.

`COc1cc(C(=O)NC2CCN(C(=O)CCC3(O)CCN(c4cccc5c4C(=O)N(C4CCC(=O)NC4=O)C5=O)CC3)CC2)ccc1Nc1ncc2c(n1)N(C1CCCC1)CC(F)(F)C(=O)N2C` (stereo not drawn) [Compound 63, 4-((9-cyclopentyl-7,7-difluoro-5-methyl-6-oxo-6,7,8,9-tetrahydro-5H-pyrimido[4,5-b][1,4]diazepin-2-yl)amino)-N-(1-(3-(1-(2-(2,6-dioxopiperidin-3-yl)-1,3-dioxoisoindolin-4-yl)-4-hydroxypiperidin-4-yl)propanoyl)piperidin-4-yl)-3-methoxybenzamide]: the values for the half-maximal inhibitory concentration (IC50) in the test on MRC-5 cell line and with NCI-H526 cell line were greater than 10 µM and less than 0.05 µM, respectively. For the same molecule, the “Activity: ratio” value on PLK1 was “+++ (+++: <0.3)”.
